Data: patent publication US12673987B2, “Method to identify compounds useful to treat dysregulated lipogenesis, diabetes, and related disorders” (President and Fellows of Harvard College, priority 2017, dated 2026)

How the values were obtained:
[1] = tested on: HepG2 cells; experiment: DNL in HepG2 cells stimulated with 2-AG/aP2 complex (3H2O incorporation); format: cell-based, human; details: for stimulation of DNL in HepG2 cells: final concentration in culture media 10 nM
Method: (§1) For maintenance, HepG2 cells were cultured in DMEM containing 5.5 mM glucose (Gibco) supplemented with 10% FBS. For DNL and p-AMPK analysis, HepG2 cells were cultured in DMDM 3.3 mM glucose supplemented with 0.5% FBS, seeded 2×10^5 cells in 12 well plate or 4×10^5 cells in 6 well plate for DNL analysis and p-AMPK analysis, respectively.
(§2) For DNL analysis, after overnight culture, the cells were stimulated with conditioned media or 2-AG/aP2 complex and […] of ^3H2O were added 30 min after the stimulation (Gnoni et al., (1985) Biochem. & Biophysical Res. Comm. 128, 525-530; Lowenstein et al., Meth. Enzym. 35, 279-287). After 2 hours of incubation with ^3H2O, cells were washed with PBS and lysed with 0.1N NaOH. The cell lysate was analyzed for protein concentration and total lipid was extracted by Dole's extraction method (Dole et al., (1960) J. Biol. Chem. 235, 2595-2599). ^3H incorporation into de novo synthesized lipids were analyzed by scintillation count and calculated as count per μg protein. For p-AMPK analysis, after overnight culture, cells were stimulated with conditioned media or 2-AG/aP2 complex for 30 min. The cells were washed twice with ice cold PBS and lysed with ice cold RIPA buffer (Cell Signaling) supplemented with 1 mM PMSF. AMPK phosphorylation was determined by western blot (see below).
(§3) 10 or 20 μM delipidated mouse recombinant aP2 protein with or without 10 μM 2-AG were diluted in 50 mM potassium phosphate buffer (pH 7.4) and incubated at 37C for overnight. The ratio of aP2 binding to 2-AG was determined by 8-Anilinonaphthalene-1-sulfonic acid (ANS) assay. For antibody neutralization, IgG, CA33, or CA15 antibody at final concentration of 20 μM was added to 50 mM potassium phosphate buffer (pH 7.4) only or to delipidated mouse recombinant aP2 protein (final 10 μM) with 2-AG (final 10 μM) solution in 50 mM potassium phosphate buffer (pH 7.4) and incubated at 37° C. overnight. Final concentration in culture media for aP2, 2-AG, and antibodies were 10, 10, and 20 nM, respectively.

[2] = molecular target: T1, aP2 (Mus musculus, UniProt P04117); experiment: 8-Anilinonaphthalene-1-sulfonic acid (ANS) binding assay; design: His tag (cleaved yes); made in house; host or cells: Escherichia coli BL21DE3 (Pet28a plasmid)
T1 sequence (P04117 1-132): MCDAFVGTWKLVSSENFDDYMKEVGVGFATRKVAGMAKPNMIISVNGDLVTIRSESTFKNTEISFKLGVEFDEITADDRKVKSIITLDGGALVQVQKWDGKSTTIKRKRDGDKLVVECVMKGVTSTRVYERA
Method: as §3
aP2 or aP2/lipid solution (final aP2 concentration 1 μM) and ANS (final 5 μM) was diluted in 50 mM potassium phosphate buffer (pH 7.4) and fluorescence Ex/Em 375/475 was measured.

[3] = tested on: AMPK(Thr172); experiment: AMPK phosphorylation in HepG2 cells by western blot; format: cell-based, human; details: 5 μM alone
Method: as §1
as §2, with “For p-AMPK analysis, after overnight culture, cells were stimulated with conditioned media or 2-AG/aP2 complex for 30 min. The cells were washed twice with ice cold PBS and lysed with ice cold RIPA buffer (Cell Signaling) supplemented with 1 mM PMSF.” left out
The antibodies used were rabbit anti-pAMPK (Cell Signaling), anti-actin HRP conjugated (Abcam), in-house anti-aP2 (H3) HRP conjugated antibodies. For quantification, Western blot images were captured and band intensities were analyzed using ImageJ software.

[4] = tested on: HepG2 cells; experiment: De novo lipogenesis (DNL) in HepG2 cells treated with conditioned media from lipolysis-stimulated adipocytes (3H2O incorporation); format: cell-based, human
Method: Murine 3T3L1 adipocytes and human HepG2 cells were obtained from the ATCC. 3T3L1 adipocytes were maintained in Dulbecco Modified Eagle Medium (DMEM) containing 25 mM glucose (Gibco) supplemented with 10% cosmic calf serum (CCS), and adipocyte differentiation was induced as previously described (Ntambi et al., (1988) J. Biol. Chem. 263, 17291-17300). Briefly, preadipocytes were grown in 10 cm dishes until they are fully confluent. At confluent state, 10% bovine calf serum (BCS) containing DMEM medium was replaced with 10% fetal bovine serum (FBS) containing DMEM for two days. Differentiation was induced by FBS medium containing 5 μg/ml Insulin (Sigma, 15500), 0.5 mM IBMX (Sigma, 15879), 1 μM Dexamethasone (Sigma, D4902), and 1 μM Rosiglitazone (Cayman Chemical, 71740). After two days, medium was replaced with FBS medium containing 5 μg/ml Insulin every other day until the cells were completely differentiated at day 10. For siRNA experiment, differentiated 3T3-L1 adipocytes were transfected using Amaxa Nucleofector Kit L (Lonza, VCA-1005) according to the manufacturer's protocol. Briefly, differentiated adipocytes were trypsinized and centrifuged at 100 g for 10 minutes. 3×10^6 cells per 6-well were transfected with 120 pmol/sample Control siRNA (Dharmacon, D-001810-10) or mouse aP2 siRNA (Dharmacon, L-042923-01) using Nucleofector Program A-33. Transfected cells were seeded in Collagen I coated 6-well plates (Corning, 356400). Conditioned media for stimulation of HepG2 cells were prepared in DMDM 3.3 mM glucose supplemented with 0.5% FBS before (basal) and after (lipolysis stimulated) the lipolysis stimulation with 1 mM IBMX. For explant studies, adipose tissue was removed from 8-12 weeks-old littermate mice, minced and washed 5× with DMEM high glucose supplemented with 10% CCS. Twenty pieces of adipose tissue were placed into 6-well plates in 2 ml DMEM high glucose with 10% CCS and incubated for 1 hr. Then conditioned media for stimulation of HepG2 cells were prepared in […] 3.3 mM glucose supplemented with 0.5% FBS before (basal) and after (lipolysis stimulated) the lipolysis stimulation with 1 mM 3-isobutyl-1-methylxanthine (IBMX). For antibody neutralization, 10 nM (for 3T3L1 cells) or 20 nM (for adipose tissue explant) of IgG, CA33, or CA15 antibody was added to DMDM 3.3 mM glucose supplemented with 0.5% FBS was used for the preparation of “basal” and “lipolysis stimulated” conditioned media.
as §1
as §2, with “After 2 hours of incubation with ^3H2O, cells were washed with PBS and lysed with 0.1N NaOH.” left out, “For p-AMPK analysis, after overnight culture, cells were stimulated with conditioned media or 2-AG/aP2 complex for 30 min. The cells were washed twice with ice cold PBS and lysed with ice cold RIPA buffer (Cell Signaling) supplemented with 1 mM PMSF.” left out

[5] = tested on: 3T3L1 adipocytes; experiment: aP2 secretion from 3T3L1 adipocytes into conditioned media; format: cell-based, murine; details: adipocytes pretreated with 10 μM, starting 48 hours before collection of conditioned media
Method: (§4) Murine 3T3L1 adipocytes and human HepG2 cells were obtained from the ATCC. 3T3L1 adipocytes were maintained in Dulbecco Modified Eagle Medium (DMEM) containing 25 mM glucose (Gibco) supplemented with 10% cosmic calf serum (CCS), and adipocyte differentiation was induced as previously described (Ntambi et al., (1988) J. Biol. Chem. 263, 17291-17300). Briefly, preadipocytes were grown in 10 cm dishes until they are fully confluent. At confluent state, 10% bovine calf serum (BCS) containing DMEM medium was replaced with 10% fetal bovine serum (FBS) containing DMEM for two days. Differentiation was induced by FBS medium containing 5 μg/ml Insulin (Sigma, 15500), 0.5 mM IBMX (Sigma, 15879), 1 μM Dexamethasone (Sigma, D4902), and 1 μM Rosiglitazone (Cayman Chemical, 71740). After two days, medium was replaced with FBS medium containing 5 μg/ml Insulin every other day until the cells were completely differentiated at day 10. For siRNA experiment, differentiated 3T3-L1 adipocytes were transfected using Amaxa Nucleofector Kit L (Lonza, VCA-1005) according to the manufacturer's protocol. Briefly, differentiated adipocytes were trypsinized and centrifuged at 100 g for 10 minutes. 3×10^6 cells per 6-well were transfected with 120 pmol/sample Control siRNA (Dharmacon, D-001810-10) or mouse aP2 siRNA (Dharmacon, L-042923-01) using Nucleofector Program A-33. […]

[6] = tested on: 3T3L1 adipocytes; experiment: FFA release from 3T3L1 adipocytes; format: cell-based, murine; details: adipocytes pretreated with 10 μM, starting 48 hours before collection of conditioned media
Method: as §4, with “protocol.” for “protocol. Briefly, differentiated adipocytes were trypsinized and centrifuged at 100 g for 10 minutes. 3×10^6 cells per 6-well were transfected with 120 pmol/sample Control siRNA (Dharmacon, D-001810-10) or mouse aP2 siRNA (Dharmacon, L-042923-01) using Nucleofector Program A-33.”
Triglyceride (TG) levels were analyzed using triglyceride assay kit (Randox) and Cholesterol levels were analyzed using by Infinity cholesterol kid (Thermo Scientific). FFA levels in culture media were measured using a NEFA-HR2 kit (Wako) following the manufacturer's instructions.

[7] = molecular target: T1, aP2; experiment: Microscale thermophoresis assay; format: binding; design: His tag (cleaved yes); made in house; details: fluorescence labeled purified aP2 protein
Method: It has been reported that both 2-AG and AEA have similar affinity for the CB1 receptor (Stella et al., (1997) Nature 388, 773-778; Felder et al., (1993) PNAS 90, 7656-7660), and only the level of 2-AG in serum is regulated in obesity (Bluher et al., (2006) Diabetes 55, 3053-3060). The potential interaction between 2-AG and aP2 was tested. […] Finally, to resolve the mechanism and structural determinants of this interaction, aP2 and 2-AG was co-crystallized, confirming the ability of these two molecules to bind. In Ca superposition, the root mean square deviation (RMSD) between mouse 2-AG/FABP4 complex and apo mouse FABP4 structure was about 0.548 A (see FIG. 3G). […] Due to steric hindrance of the acyl chain of 2-AG, the Phe57 side chain was modelled as open position in the complex structure. The polar head group of 2-AG was stabilized by hydrogen bond interactions with R127, R107, Y129 and S54 of FABP4 (see FIG. 3H).

## CCCCC/C=C\C/C=C\C/C=C\C/C=C\CCCC(=O)OC(CO)CO [2-AG, 2-Arachidonoylglycerol]
[1]
  stimulation of DNL in HepG2 cells: nor 2-AG alone stimulated DNL
[2]; after overnight incubation of delipidated recombinant aP2 with 2-AG
  binding of 2-AG to aP2 by ANS assay: confirmed binding
[2]; compared with mall (Fabp5)
  binding affinity of aP2 to the lipid, substrate competition with ANS: same affinity as does mall
[3]
  dephosphorylation of AMPK(Thr172) in HepG2 cells: same level

## CCc1c(-c2ccccc2)c(-c2ccccc2)nn1-c1ccccc1-c1cccc(OCC(=O)O)c1 [BMS-309403]
[4]; 3T3L1 adipocytes pretreated with 10 μM, starting 48 hours before collection
  ability of conditioned media from lipolysis-stimulated 3T3L1 adipocytes to induce DNL in HepG2 cells: completely inhibited
[4]; Fabp-deficient adipocytes pre-incubated with 10 μM
  effect on DNL in HepG2 cells treated with conditioned media from Fabp-deficient adipocytes: no additional or Fabp-independent effect on DNL
[1]; added during 2-AG/aP2 complex formation
  effect of 2-AG/aP2 complex on DNL in HepG2 cells: eliminated the effect of 2-AG/aP2 complex on DNL
[5]
  aP2 secretion: did not alter
[6]
  FFA secretion: did not alter

## Cc1c(C(=O)NN2CCCCC2)nn(-c2ccc(Cl)cc2Cl)c1-c1ccc(Cl)cc1 [Rimonabant]
[4]; HepG2 cells treated with 1 μM
  induction of DNL by conditioned media from lipolysis-stimulated 3T3L1 adipocytes: completely inhibited induction of DNL

## CCCCCCCC/C=C\CCCCCCCC(=O)O [oleate]
[7]
  Kd of direct binding to aP2: an affinity similar to that observed for oleate

B1: CA33: therapeutically active aP2 monoclonal antibody; the rabbit 909 heavy and light chain comprise CA33 (antibody, V domains shown)
VH: QSVEESGGRLVTPGTPLTLTCTVSGFSLSTYYMSWVRQAPGKGLEWIGIIYPSGSTYCASWAKGRFTISKASTTVDLKITSPTTEDTATYFCARPDNDGTSGYLSGFGLWGQGTLVTVSS
VL: DVVMTQTPASVSEPVGGTVTIKCQASEDISRYLVWYQQKPGQPPKRLIYKASTLASGVPSRFKGSGSGTDFTLTISDLECDDAATYYCQCTYGTYAGSFFYSFGGGTEVVVE
modifications: Rabbit Ab 909 VH region; Rabbit Ab 909 VL-region
[4]; antibody (10 nM for 3T3L1 cells) added to conditioned media, IBMX lipolysis stimulation
  induction of DNL by conditioned media from lipolysis stimulated adipocytes in HepG2 cells: completely prevented the induction of DNL
[1]; complex formed in the presence of antibody (20 μM, final 20 nM in culture media)
  ability of 2-AG/aP2 complex to regulate DNL in HepG2 cells: lost its ability to regulate DNL

B2: aP2: delipidated mouse recombinant aP2 protein (adipocyte lipid binding protein) (protein)
chain: CDAFVGTWKLVSSENFDDYMKEVGVGFATRKVAGMAKPNMIISVNGDLVTIRSESTFKNTEISFKLGVEFDEITADDRKVKSIITLDGGALVQVQKWDGKSTTIKRKRDGDKLVVECVMKGVTSTRVYERA
[4]; added to conditioned media from 3T3L1 adipocytes with siRNA-mediated aP2 suppression
  rescue of DNL in HepG2 cells: not sufficient to rescue DNL
[1]
  stimulation of DNL in HepG2 cells: neither aP2 nor 2-AG alone stimulated DNL
